# Tests used:
# [1] = tested on: Listeria monocytogenes PCM2191; experiment: MIC determination; assay type: cell-based; conditions: 37 °C, 48 h
# Procedure: (§1) The MIC determinations for Staphylococcus epidermidis ATCC14990, Staphylococcus aureus ATCC6538, Enterococcus faecalis ATCC51299, Klebsiella pneumoniae ATCC13883, Escherichia coli ATCC8739, Salmonella enterica ATCC13076, Helicobacter pylori ATCC43504, Campylobacter jejuni ZMF, Campylobacter coli ZMF, Bacillus cereus PCM 1948,2019 (ATCC11778), and Listeria monocytogenes PCM2191 were performed based on the methodology described by Krauze-Baranowska et al.. The procedure for H. pylori was used in the experiments with Campylobacter strains, and the procedure for B. subtilis was used in the experiments with L. monocytogenes and B. cereus. The tested samples were dissolved in DMSO and diluted with water (concentration of approximately 500 μg/mL). The solutions were diluted geometrically by transferring the mixture/dilution (100 μL) from the first to the twelfth well of the microtiter plate. The final concentrations of samples used for antimicrobial effects ranged from 500 to 0.006 µg/mL. Ampicillin was used as a reference compound in the concentration range of 128 to 0.0625 µg/mL. The tests were incubated at 37 °C for 48 h. The diluent concentration had no effect on the activity of the tested compounds. All experiments were performed in triplicate.
# [2] = tested on: Salmonella enterica ATCC13076; experiment: MIC determination; assay type: cell-based; conditions: 37 °C, 48 h
# Procedure: as §1
# [3] = tested on: Bacillus cereus PCM 1948,2019 (ATCC11778); experiment: MIC determination; assay type: cell-based; conditions: 37 °C, 48 h
# Procedure: as §1
# [4] = tested on: Staphylococcus aureus ATCC6538; experiment: MIC determination; assay type: cell-based; conditions: 37 °C, 48 h
# Procedure: as §1
# Campylobacter jejuni ZMF = experiment: MIC determination; assay type: cell-based; conditions: 37 °C, 48 h
# Procedure: as §1
# [5] = tested on: Enterococcus faecalis ATCC51299; experiment: MIC determination; assay type: cell-based; conditions: 37 °C, 48 h
# Procedure: as §1
# [6] = tested on: Escherichia coli ATCC8739; experiment: MIC determination; assay type: cell-based; conditions: 37 °C, 48 h
# Procedure: as §1
# [7] = tested on: Helicobacter pylori ATCC43504; experiment: MIC determination; assay type: cell-based; conditions: 37 °C, 48 h
# Procedure: as §1
# [8] = tested on: Staphylococcus epidermidis ATCC14990; experiment: MIC determination; assay type: cell-based; conditions: 37 °C, 48 h
# Procedure: as §1
# [9] = tested on: Klebsiella pneumoniae ATCC13883; experiment: MIC determination; assay type: cell-based; conditions: 37 °C, 48 h
# Procedure: as §1
# Campylobacter coli ZMF = experiment: MIC determination; assay type: cell-based; conditions: 37 °C, 48 h
# Procedure: as §1
# [10] = DPPH radical scavenging assay; conditions: concentration of 800 µg/mL
# Procedure: The DPPH radical scavenging assay of samples (ligands or complexes) was performed with ascorbic acid as a standard. Different concentrations of chalcone derivatives, dissolved in DMSO, were mixed with the same amount of 0.06 mM DPPH methanolic solution and incubated at room temperature in the dark for 30 min. The absorbance was analyzed at λ = 517 nm using a 96-well microplate reader (Epoch, BioTek System, Winooski, VT, USA). The control was composed of DPPH and DMSO. DPPH inhibition was calculated according to the following Formula (2):DPPH Inhibition (%) = [(Acontrol − Asample)/Acontrol] × 100%(2)
# [11] = tested on: human neonatal fibroblasts; experiment: MTT assay, noncancerous fibroblasts; assay type: cell-based; conditions: 24 h treatment
# Procedure: (§2) The human gastric adenocarcinoma AGS, cervical cancer HeLa, and acute promyelocytic leukemia HL-60 cells were obtained from the American Type Culture Collection (ATCC, Manassas, VA, USA). Human neonatal fibroblasts were obtained from LGC Standards (Luckenwalde, Germany). The HeLa and AGS lines were cultured in Dulbecco’s modified Eagle’s medium (DMEM) and DMEM/F12 medium, respectively. The HL-60 line was maintained in RPMI-1640 medium. Fibroblasts were cultured in Fibroblast Growth Medium with Supplement Mix. All the media were supplemented with 100 units/mL of penicillin, 100 µg/mL of streptomycin, and 10% (v/v) fetal bovine serum (FBS) (Merck Millipore, Burlington, MA, USA). The cells were incubated at 37 °C and 5% CO2.
# (§3) To estimate the cytotoxic effect of the five compounds (4–8), MTT (3-(4,5-dimethylthiazol-2-yl)-2,5-diphenyltetrazolium bromide) assay was used. Oxaliplatin was used as a positive control in this test. All the cell lines were seeded in 96-well plates at a density of 5 × 10^3 cells/well and treated for 24 h with the compounds at concentrations of 0.5–40 µg/mL. Oxaliplatin was tested in the range of 20–400 µg/mL (50–1000 µM). After treatment, the cells were incubated with MTT (0.5 mg/mL; Merck Millipore, Burlington, MA, USA) for 3 h. Then, DMSO was used to dissolve formazan crystals, and the absorbance of the formazan solution was measured with a plate reader (Epoch, BioTek Instruments, Santa Clara, CA, USA). All the results (±standard deviation (SD)) were obtained from six repetitions in at least two independent experiments. The data are expressed as IC50 values (µg/mL).
# cervical cancer HeLa = experiment: MTT assay, HeLa cells; assay type: cell-based, human
# Procedure: as §2, §3
# [12] = tested on: acute promyelocytic leukemia HL-60; experiment: MTT assay, HL-60 cells; assay type: cell-based, human
# Procedure: as §2, §3
# neutrophil elastase = target: T1, neutrophil elastase (Sus scrofa, UniProt P00772); experiment: Elastase assay (SANA substrate); assay type: biochemical, porcine; conditions: Tris-HCl pH 8.0, SANA substrate; read-out: neutrophil elastase inhibition IC50 (converted)
# T1 construct: purchased Sigma Chemical Co. (St. Louis, MO, USA)
# T1 sequence (P00772 27-266): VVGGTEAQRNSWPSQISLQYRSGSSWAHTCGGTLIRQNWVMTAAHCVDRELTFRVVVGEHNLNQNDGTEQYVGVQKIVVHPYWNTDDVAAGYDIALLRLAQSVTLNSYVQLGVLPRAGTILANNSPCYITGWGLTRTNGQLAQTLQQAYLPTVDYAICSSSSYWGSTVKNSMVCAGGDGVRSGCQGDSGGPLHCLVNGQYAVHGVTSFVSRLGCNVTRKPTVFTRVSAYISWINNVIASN
# Procedure: The elastase analysis was performed according to the spectrophotometric method with oleanolic acid as a reference. The reaction mixture (Tris-HCl buffer (pH 8.0), 1.0 μg/mL porcine pancreatic elastase, and different concentrations of chalcone derivatives was preincubated at room temperature for 15 min. Afterwards, the addition of the substrate—SANA—started the reaction. Product formation changes were analyzed at λ = 410 nm for 20 min every 20 s (Epoch, BioTek Instruments, Santa Clara, CA, USA). The control was composed of Tris-HCl buffer (pH 8.0), an appropriate concentration of the chalcone derivative, and SANA.
# [13] = tested on: gastric adenocarcinoma AGS; experiment: MTT assay, AGS cells; assay type: cell-based, human
# Procedure: as §2, §3
# AGS cells [14] = experiment: Cell cycle analysis (propidium iodide); assay type: cell-based, human; conditions: 40 µg/mL
# Procedure: The AGS cells were seeded in a 6-well plate (5 × 10^5 cells/well) and incubated with compound 5 at concentrations of 1, 5, and 10 µg/mL for 48 h; oxaliplatin at the concentration of 40 µg/mL; and DMSO (0.2%, v/v). After treatment, the cells were stained with propidium iodide from the Muse Cell Cycle Assay Kit (Merck Millipore, Burlington, MA, USA), and the amount of cells in each phase of the cell cycle was determined using the Muse Cell Analyzer (Merck Millipore, Burlington, MA, USA). The experiment was independently repeated three times.
# AGS cells [15] = experiment: MitoPotential assay (mitochondrial membrane depolarization); assay type: cell-based, human; conditions: 40 µg/mL, 5 h
# Procedure: The AGS cells were seeded in a 12-well plate (1 × 10^5 cells/well) and incubated with compound 5 at concentrations of 1, 5, and 10 µg/mL; oxaliplatin at the concentration of 40 µg/mL; and DMSO (0.2%, v/v). After 5 h of exposure, the cells were stained with the Muse MitoPotential Assay Kit (Merck Millipore, Burlington, MA, USA) and analyzed with the Muse Cell Analyzer (Merck Millipore, Burlington, MA, USA). The percentage of depolarized live and dead cells was estimated in the experiments, which were independently repeated three times.
# caspase-9 = experiment: Caspase-Glo 9 activity assay in AGS cells; assay type: cell-based, human; conditions: 20 µg/mL
# Procedure: (§4) The AGS cells were seeded in a 96-well plate (5 × 10^3 cells/well) and treated with compound 5 at concentrations of 1, 5, 7, and 10 µg/mL for 24 h; oxaliplatin at the concentration of 20 µg/mL; and DMSO (1%, v/v). The cells were then treated with reagents from Caspase-Glo 8 Assay or Caspase-Glo 9 Assay (Promega, Madison, WI, USA) and measured with the luminometer Glomax Multi + Detection System (Promega, Madison, WI, USA). The experiments were performed in two independent repeats in three repetitions.
# caspase-8 = experiment: Caspase-Glo 8 activity assay in AGS cells; assay type: cell-based, human; conditions: 20 µg/mL
# Procedure: as §4
# [16] = SI = IC50 noncancer cells/IC50 cancer cells, in relation to human neonatal fibroblasts
MIC [1],MIC [2],MIC [3],MIC [4],MIC (Campylobacter jejuni ZMF),MIC [5],MIC [6],MIC [7],MIC [8],MIC [9],MIC (Campylobacter coli ZMF),Compound,also measured
> 500 µg/mL,> 500 µg/mL,> 500 µg/mL,> 500 µg/mL,> 500 µg/mL,> 500 µg/mL,> 500 µg/mL,> 500 µg/mL,> 500 µg/mL,> 500 µg/mL,> 500 µg/mL,"Cc1cc(S(=O)(=O)Nc2ccc(C(=O)/C=C/c3ccc(Cl)cc3)cc2)c(Cl)cc1Cl [Compound 7, (E)-2,4-Dichloro-N-{4-[3-(4-Chlorophenyl)acryloyl]phenyl}-5-Methylbenzenesulfonamide]","% of DPPH radical inhibition [10]: 18.70 ± 0.04%; IC50 ([11]; Homo sapiens, Fibroblast): 29.9 ± 3.27 µg/mL; IC50 (cervical cancer HeLa; Homo sapiens, HeLa, MTT, 24 h treatment): 6.34 ± 0.04 µg/mL; selectivity index HeLa (cervical cancer HeLa; [16]): 4.72; IC50 ([12]; Homo sapiens, HL-60, 24 h, MTT, 24 h treatment): < 1.57 µg/mL; IC50 HL-60 ([12]; MTT, 24 h treatment): 1.46 ± 0.20 µg/mL; selectivity index HL-60 [12, 16]: 20.51; IC50 (neutrophil elastase): 53.3 µM; IC50 ([13]; Homo sapiens, AGS, 24 h, MTT, 24 h treatment): < 1 µg/mL; selectivity index AGS [13, 16]: 19.08"
,,,,,,,,,,,"O=C1[O][Pt]2([NH][C@@H]3CCCC[C@H]3[NH]2)[O]C1=O [Oxaliplatin, reference compound]","amount of cells in subG0 phase (in words) (AGS cells [14]): significant increase; cells in G0/G1 phase (AGS cells [14]): 35.6%; cells in G2/M phase (AGS cells [14]): 32.4%; cells in S phase (AGS cells [14]): 14.2%; IC50 Fibroblasts [11]: 95.79 ± 3.24 µg/mL; changes in percentages of live, depolarized, and dead cells versus control (AGS cells [15]): no observable changes; caspase-9 activity (in words) (caspase-9): notable increase; IC50 HeLa (cervical cancer HeLa; MTT, 24 h treatment): 35.76 ± 1.72 µg/mL; caspase-8 activity (in words) (caspase-8): notable increase; IC50 AGS ([13]; MTT, 24 h treatment): 17.90 ± 1.20 µg/mL"
16 µg/mL,0.5 µg/mL,125 µg/mL,0.08 µg/mL,32 µg/mL,0.16 µg/mL,3.9 µg/mL,3.2 µg/mL,0.312 µg/mL,62.5 µg/mL,16 µg/mL,"CC1(C)S[C@@H]2[C@H](NC(=O)[C@H](N)c3ccccc3)C(=O)N2[C@H]1C(=O)O [ampicillin, reference compound]",

# — paper PMC10778824, “New Chalcone Derivatives Containing 2,4-Dichlorobenzenesulfonamide Moiety with Anticancer and Antioxidant Properties” (International Journal of Molecular Sciences, 2023)
